The conditions of data set [1]: cited from earlier work.
In data set [2] the test system is 3D human liver microtissues (hLiMT).
The nature of data set [3]: Clinical DILI severity categorization and DILI pattern. To be noted: P = DILI severity categories 1, 2 and 3; N = categories 4 and 5.
Data set [4] deals with 3D human liver microtissues (hLiMT). Briefly: Cytotoxicity (cellular ATP, CellTiter-Glo 2.0) in 3D human liver microtissues, 14 day repeat-dose treatment. To be noted: for IC50: Homo sapiens, 336 h.
The test system of data set [5] is primary human hepatocytes (PHH). Briefly: Cytotoxicity (cellular ATP, CellTiter-Glo) in 2D plated primary human hepatocytes, 48 h treatment.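 As to all read-outs here: 384-well plates, luminescence read-out, normalized to vehicle wells with 1% DMSO.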 It counts as cell-based. Particulars: for IC50: Hepatocyte, 2D primary human hepatocytes (lot IZT), 48 h treatment, total cellular ATP content, read-out: Geomean IC50.
For data set [6] the following is noted: ref Chen et al 2016 / Chen et al 2011; cited from earlier work.
The conditions of data set [7]: cited from earlier work; for P/N (DILI positive / DILI negative): P = DILI severity categories 1, 2 and 3, N = categories 4 and 5; for DILI category: clinical, from literature and product labels.
The next data set has as its system BSEP transporter. Also on record: method as in Kenna et al. [2015]. Particulars: ref Kenna et al. [2015]; cited from earlier work.
Data set [8] relates to 3D human liver microtissues (hLiMT). Nature of the data set: alpha-GST release into hLiMT supernatant (ELISA). Particulars: 336 h, 14 days, release into medium, read-out: IC50 (α-GST assay). It counts as cell-based. A general note: In an ELISA, binding on a coated surface is turned into a signal by an enzyme label.
Data set [9] has the same test system. Nature of the data set: Cytotoxicity (cellular ATP) in 3D human liver microtissues, 5-6 days treatment.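 Also: Hanging-drop spheroids, seven-point dilution series, re-dosed on day 3, CellTiter-Glo 2.0 luminescence, normalized to 0.5 or 1% DMSO vehicle controls on the same plate.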 It counts as cell-based. Particulars: Homo sapiens; hLiMT, 5/6 days, ATP content; read-out: IC50 SHORT.
Data set [10] has the same test system. Nature of the data set: HMGB1 levels in hLiMT supernatant (ELISA). The class given is cell-based. Particulars: 5 days exposure. How it is done: Supernatants from single hLiMT (in triplicates) were analysed for HMGB1 content using IBLs ELISA assay using the high sensitive range test procedure. Briefly, 50 μL of the thawed cell-culture supernatants from single microtissues or diluted standards were incubated in the microtiter plate along with 50 μL of the diluent buffer for 20-24 h at 37 °C in the dark. The plate was then washed 5 times with 400 µL diluted wash buffer (1:5), blotted dry and 100 µL enzyme conjugate added. After incubation in the dark for 2 h at 25 °C the plate was washed 5 times with 400 µL diluted wash buffer, blotted dry and then 100 µL colour solution added. The plate was incubated for a further 30 min at room temperature prior to the addition of 100 µL stop solution. The absorbance was then determined at 450 nm using an EnVision® plate reader (PerkinElmer, Waltham, MA, USA) within 60 min. The concentration of HMGB1 in the samples was read off the high sensitivity range standard curve obtained from plotting the OD of the standards against the concentration (ng/L).

Data set [11] has the same test system. Briefly: miR-122 levels in hLiMT supernatant (qRT-PCR). The class given is cell-based. To be noted: 5 days exposure. On the procedure: miRNA extraction miRNA was extracted using a miRNeasy kit, following the manufacturer's instructions, and as described by Starkey et al. 2016 with minor modifications. Thirty-eight µL thawed hLiMT supernatant was mixed with 162 µL nuclease-free water and 700 µL QIAzol reagent and then incubated for 5 min at room temperature. Chloroform (100 µL) was added, the samples shaken vigorously for 15 sec and then centrifuged at 12,000 g for 15 min at 4 °C. The supernatant was then mixed with 500 µL 70% ethanol and transferred to a miRNeasy minispin column. The column was centrifuged at >8000 g for 15 sec. The elute was then purified using a MinElute kit
miRNA purification The small RNA elution mixture was applied to the MinElute column 700 µL at a time. […]
qRT-PCR One µl thawed cDNA was mixed with 19 µl miR-122 or cel-lin4 PCR reaction master mix containing 1 µL Taqman^TM miR-122 or cel-lin4 primer small RNA assay (20X), 10 µl Taqman^TM universal PCR master mix II (2X) and 8 µL nuclease free water. Levels of miRNA were measured by the fluorescent signal produced from the Taqman probes on an ABI Prism 7000 (Applied Biosystems). miRNA levels were normalized to levels of cel-lin4 miRNA. Relative miRNA production was determined with the ΔCt method and reported as 2−ΔCt, where Ct is the threshold cycle. Differences in miRNA concentration were expressed as fold changes relative to control.
For orientation: Quantitative PCR measures a nucleic acid by following its amplification.

[12] abbreviates: human Cmax total, used for IC50/Cmax.
Where [13] appears, read: human total plasma Cmax, ref literature values.
Where [14] appears, read: Hepatocyte, read-out: Geomean IC50 [µM].
Where [15] appears, read: Table 1, ref Garside et al. (2014).
Setting [16] is: clinical DILI severity category, 1-5.
Setting [17] is: table S-4, ref Garside et al. 2014.
Setting [18] is: table S-5, ref Garside et al. 2014.

“Also recorded” adds a separate entry of the source. Read-outs that look alike come from different tables or passages of the source.

As a reminder, the Cmax is the maximum level reached in the sampled fluid or tissue. By IC50 is commonly meant the midpoint of a concentration-inhibition curve.

`Nc1nc(F)nc2c1ncn2[C@@H]1O[C@H](CO)[C@@H](O)[C@@H]1O` [Fludarabine]: the Cmax in data set [1] (setting [12]) and in data set [1] (setting [13]) was 170 nM each time. Also, in [2], the “Geomean IC50/cmax” value is given as 39.9. Moreover, the “P/N (DILI positive / DILI negative)” value in [3] and in data set [7] was “N” throughout. Moreover, the IC50 in data set [4] (setting [14]) was 6.8 µM; in [5], greater than 50 µM. Moreover, in [6], the “FDA DILI Classification DILI severity score” value is 0. Besides, in data set [6], the “LTKB DILI classification” value is listed as “no DILI concern”. Besides, the DILI severity category is reported as 4: Enzyme elevations in clinic (N = 16) in data set [7] (setting [15]) and 4. Enzyme Elevations in Clinic in data set [7] (setting [16]). For the same compound, the DILI category in data set [7] (ref Garside et al. 2014) is recorded as 4. Enzyme Elevations in Clinic.

Regarding `COC(c1ccccc1)(c1ccccc1)[C@H](Oc1nc(C)cc(C)n1)C(=O)O` [Ambrisentan], the Cmax in [1] (setting [12]) and in [1] (setting [13]) was 790 nM throughout. The “fold lower potency to inhibit BSEP transporter function than bosentan” value with BSEP transporter is on record as 10 fold. The “fold lower potency to inhibit BSEP transporter function than sitax(s)entan” value with BSEP transporter is given as 30 fold. For the same compound, the “P/N (DILI positive / DILI negative)” value in data set [3] and in data set [7] was “N” each time. Besides, the IC50 in data set [4] (setting [14]) and in data set [5] was greater than 100 µM throughout. Also, the cytotoxicity entry in data set [4] (hLiMT 14 days, in words) is “did not detect cytotoxicity; also recorded: not cytotoxic”. Also, the “FDA DILI Classification DILI severity score” value in data set [6] is 7. For the same compound, the “LTKB DILI classification” value in data set [6] is “Ambiguous DILI concern”. For the same compound, the DILI severity category is recorded as 5: No DILI (N = 25) in [7] (setting [15]) and 5. No DILI in data set [7] (setting [16]). The DILI category in data set [7] (ref Garside et al. 2014) is given as 5. No DILI.

Turning to `Cc1c(C)c2c(c(C)c1O)CCC(C)(COc1ccc(CC3SC(=O)NC3=O)cc1)O2` (stereo not drawn) [Troglitazone], in data set [1] (setting [12]), the Cmax is 6400 nM. Moreover, the IC50 in data set [4] (read-out: IC50 (ATP-assay)) was 10.8 µM; in [4] (read-out: IC50 LONG), 14.6 µM; in data set [4] (setting [14]) it was roughly 14.6 µM; in data set [8], 14 µM; in data set [5] it was greater than 100 µM; in data set [9] it was 25.6 µM. For the same compound, in data set [6], the “FDA DILI Classification DILI severity score” value was 8. In addition, the “LTKB DILI classification” value in data set [6] is on record as “most DILI concern”. Besides, the DILI severity category is listed as 1: Severe clinical DILI (N = 23) in [7] (setting [15]), 1. Severe Clinical DILI in [7] (setting [16]), 1 in [7] (setting [17]) and 1. Severe Clinical DILI in data set [7] (setting [18]). In addition, the DILI category in data set [7] (ref Garside et al. 2014) is 1. Severe Clinical DILI.

`CN(C)CCCN1c2ccccc2Sc2ccc(Cl)cc21` [Chlorpromazine]: the Cmax in data set [1] (setting [12]) and in data set [1] (setting [13]) was 940 nM each time. Also, the “release of HMGB1” value in [10] is on record as “dose-dependent release”. Besides, the concentration for half-maximal inhibition (IC50) in data set [4] (read-out: IC50 (ATP-assay)) was 7 µM; in data set [4] (read-out: IC50 LONG), 7.1 µM; in data set [4] (setting [14]) it was roughly 7.4 µM; in data set [8], 45.4 µM; in [5], 19.2 µM; in data set [9], 10.9 µM. Besides, the “release of miR-122” value in data set [11] was “dose-dependent release”. In addition, the “FDA DILI Classification DILI severity score” value in data set [6] is 2. For the same compound, in data set [6], the “LTKB DILI classification” value is “less DILI concern”. Moreover, the DILI severity category in [7] (setting [15]) was 3: Low clinical DILI concern (N = 23); in [7] (setting [16]), 3. Low Clinical DILI Concern; in data set [7] (setting [17]) it was 3; in data set [7] (setting [18]) it was 3. Low Clinical DILI Concern. The DILI category in data set [7] (ref Garside et al. 2014) is reported as 3. Low Clinical DILI Concern.

In the case of `Cc1ccc(C(=O)c2cc(O)c(O)c([N+](=O)[O-])c2)cc1` [Tolcapone], the Cmax in [1] (setting [12]) and in [1] (setting [13]) was 47600 nM each time. The IC50 in data set [4] (read-out: IC50 (ATP-assay)) was 19.3 µM; in data set [4] (read-out: IC50 LONG), 15.5 µM; in [4] (setting [14]), roughly 19 µM; in [8], 62.4 µM; in data set [5], 158 µM; in data set [9] it was 30.1 µM. Moreover, the “FDA DILI Classification DILI severity score” value in data set [6] is reported as 8. For the same compound, the “LTKB DILI classification” value in data set [6] was “most DILI concern”. In addition, the DILI severity category in [7] (setting [15]) is on record as 1: Severe clinical DILI (N = 23); in data set [7] (setting [16]), 1. Severe Clinical DILI; in data set [7] (setting [17]) it was 1; in data set [7] (setting [18]), 1. Severe Clinical DILI. Also, the DILI category in [7] (ref Garside et al. 2014) is 1. Severe Clinical DILI.

Turning to `CCc1nn(CCCN2CCN(c3cccc(Cl)c3)CC2)c(=O)n1CCOc1ccccc1` [Nefazodone], the Cmax in [1] (setting [12]) was 4300 nM; in [1] (setting [13]), 4260 nM. Besides, the IC50 was roughly 44.9 µM in data set [4] (read-out: IC50 (ATP-assay)); 29.4 µM in [4] (read-out: IC50 LONG); roughly 29.4 µM in data set [4] (setting [14]); 48.5 µM in [8]; 36.2 µM in data set [5]; 25.3 µM in data set [9]. Also, the “classification at 50× MOS threshold” value in data set [4] (hLiMT 14 days) and in [5] (PHH 48 h) was “hepatotoxic” in each case. For the same compound, the “FDA DILI Classification DILI severity score” value in data set [6] is on record as 8. For the same compound, the “LTKB DILI classification” value in data set [6] is listed as “most DILI concern”. For the same compound, the DILI severity category in data set [7] (setting [15]) was 1: Severe clinical DILI (N = 23); in data set [7] (setting [16]), 1. Severe Clinical DILI; in [7] (setting [17]), 1; in [7] (setting [18]), 1. Severe Clinical DILI. Moreover, the DILI category in [7] (ref Garside et al. 2014) is recorded as 1. Severe Clinical DILI.

Regarding `Nc1c2c(nc3ccccc13)CCCC2` [Tacrine], the “Geomean IC50/cmax” value in data set [2] was 696.2. Also, the IC50 in [4] (setting [14]) was roughly 69.6 µM; in data set [5], 106 µM.

`CC(COc1ccccc1)N(CCCl)Cc1ccccc1` (stereo not drawn) [Phenoxybenzamine]: the Cmax in data set [1] (setting [13]) is 200 nM. Also, the “Geomean IC50/cmax” value in data set [2] was greater than 126.9. Further, the half-maximal inhibitory concentration (IC50) in data set [4] (setting [14]) was greater than 25 µM; in [5], greater than 50 µM.
